Laboratory results reported in publication PMC6136660 (Steroids, 2018).

Assay: Clinical safety (treatment-emergent adverse events), SAD
Type: in vivo, human
Description: In the SAD part of the study, 7 cohorts were to be enrolled. Eight subjects were assigned to each of Cohorts 1 to 5 and 7 and received a single oral dose of vamorolone (planned as 0.1 mg/kg, 0.3 mg/kg, 1.0 mg/kg, 3.0 mg/kg, 8.0 mg/kg, and 20.0 mg/kg, respectively) or placebo under fasted conditions. Six subjects were assigned to Cohort 6 and were administered a single oral dose of 8.0 mg/kg vamorolone within 30 min of beginning a high fat/high calorie meal.
Subjects in Cohorts 1 through 5 and 7 were randomized to receive vamorolone or placebo in a 3:1 ratio (6 subjects received vamorolone, and 2 subjects received placebo) sequentially. In Cohort 1, 3 sentinel subjects were administered vamorolone or placebo in a 2:1 ratio. Following a review of sentinel safety and tolerability data (including reported adverse events [AEs], clinical laboratory tests, vital signs, and electrocardiograms [ECGs]), the remaining 5 subjects were randomized to receive vamorolone or placebo in a 4:1 ratio and dosed no earlier than 48 h after sentinel dosing. In Cohorts 2 to 5, and 7, subjects were administered vamorolone or placebo in a 3:1 ratio. Once Cohort 5 was completed and safety data had been reviewed, subjects in Cohort 6 were administered a single oral dose of 8.0 mg/kg vamorolone within 30 min of beginning a standard high fat/high calorie meal.
After completion of all scheduled safety follow-up visits for a given cohort, a Safety Review Committee (SRC), comprised of the Principal Investigator (PI), the Sponsor’s Medical Monitor, and the Sponsor’s pharmacokineticist, reviewed all available PK and safety data (AEs, physical examination findings, ECGs, vital signs, and clinical laboratory tests) in a blinded manner for the completed cohort prior to making a decision to escalate to the next higher dose level.
In the SAD part, overall, six subjects (11%) administered vamorolone experienced a total of 10 treatment-emergent adverse events (TEAEs); no subject in the placebo group experienced any TEAEs. There was no dose-related trend in the incidence or severity of TEAEs; the dose group with the highest number of subjects reporting TEAEs was the 0.1 mg/kg dose group (2 subjects, 33%), and the highest number of TEAEs (3 events) was reported by 1 subject in the 1.0 mg/kg vamorolone dose group. In the 0.3 and 3.0 mg/kg vamorolone fasted and the 8.0 mg/kg fed dose groups, 1 subject per group (17%) experienced TEAEs, and no subjects in the 8.0 mg/kg and 20 mg/kg, fasted, dose groups experienced any TEAEs. The most common TEAEs were dizziness and headache, each reported by 2 subjects overall (4%); all other TEAEs were reported by only 1 subject (2%) and included ear pain, nausea, non-cardiac chest pain, and blood bilirubin increased. Three subjects (6%) had TEAEs that were considered possibly related to treatment. Possibly related TEAEs included nausea (1 subject, 2%), dizziness (2 subjects, 4%), and headache (2 subjects, 4%). […] All other TEAEs were mild in severity.

In the case of `C[C@@H]1C[C@H]2[C@@H]3CCC4=CC(=O)C=C[C@]4(C)C3=CC[C@]2(C)[C@@]1(O)C(=O)CO` [vamorolone], the “subjects reporting TEAEs” value (SAD 0.1 mg/kg (2 subjects)) is reported as 33%, the “subjects experiencing TEAEs” value (SAD 0.3 mg/kg fasted (1 subject)) is reported as 17% and the “number of TEAEs” value (SAD 1.0 mg/kg, reported by 1 subject) is reported as 3 events. For the same compound, the “subjects experiencing TEAEs” value (SAD 3.0 mg/kg fasted (1 subject)) was 17%, the “subjects experiencing TEAEs” value (SAD 8.0 mg/kg fasted) was “no subjects” and the “subjects experiencing TEAEs” value (SAD 8.0 mg/kg fed (1 subject)) was 17%. The “subjects experiencing TEAEs” value (SAD 20 mg/kg fasted) was “no subjects” and the “subjects experiencing TEAEs, overall” value (SAD, all dose groups (six subjects, 10 TEAEs)) was 11%.
